Assays:
[1] = tested on: patients with symptomatic oHCM; experiment: SEQUOIA-HCM: analysis by baseline Valsalva LVOT-G severity (severe <100 mmHg vs very severe ≥100 mmHg); assay type: in vivo, human; conditions: for Change in KCCQ CSS, Mean (SD) Change from Baseline / LVOT-G - Rest, Mean (SD) Change from Baseline / LVOT-G - Valsalva, Mean (SD) Change from Baseline / Peak VO2, Mean (SD) Change from Baseline / Change in KCCQ CSS, Adjusted diff / LVOT-G - Rest, Adjusted diff / LVOT-G - Valsalva, Adjusted diff / NT-proBNP, Adjusted diff / Peak VO2, Adjusted diff / Proportional LVOT-G - Rest, Adjusted diff / Proportional LVOT-G - Valsalva, Adjusted diff / hs-cTpI, Adjusted diff: Baseline to Week 24; for Change in KCCQ CSS, Adjusted diff / LVOT-G - Rest, Adjusted diff / LVOT-G - Valsalva, Adjusted diff / NT-proBNP, Adjusted diff / Peak VO2, Adjusted diff / Proportional LVOT-G - Rest, Adjusted diff / Proportional LVOT-G - Valsalva, Adjusted diff / hs-cTpI, Adjusted diff / NYHA FC improvement, Rate difference / Proportion of patients with rest LVOT-G <30 mmHg & Valsalva LVOT-G <50 mmHg, Adjusted diff: vs placebo; for NYHA FC improvement, % of patients / Proportion of patients with rest LVOT-G <30 mmHg & Valsalva LVOT-G <50 mmHg / NYHA FC improvement, Rate difference / Proportion of patients with rest LVOT-G <30 mmHg & Valsalva LVOT-G <50 mmHg, Adjusted diff: Week 24; for proportional reduction from baseline in Valsalva (provoked) LVOT-G / proportional reduction from baseline in resting LVOT-G: week 24
Source text: Patients with Hypertrophic Obstructive Cardiomyopathy and Very Severe Left Ventricular Outflow Tract Obstruction. Patients enrolled in SEQUOIA-HCM (the study of Example 8), the pivotal phase 3 controlled trial of aficamten in adults with symptomatic oHCM, were grouped according to baseline Valsalva LVOT-G (severe obstruction [<100 mmHg] versus very severe obstruction [≥100 mmHg]). The prespecified primary endpoint was the proportional change from baseline to Week 24 in rest and Valsalva LVOT-G in severe versus very severe obstruction groups. Secondary endpoints included change in symptoms, cardiac biomarkers, and exercise capacity by group (Table 14). Of the 282 patients randomized, 209 patients had severe obstruction, and 73 had very severe obstruction. Compared to baseline, there was a profound reduction in resting and provoked obstruction in both groups. By week 24, the proportional reductions (95% CI) from baseline in the severely obstructed cohort were 69% (74 to 63) and 64% (69 to 56), and 73% (81 to 63) and 71% (79 to 61) in the very severe obstruction cohort, but there was no between-group difference (p>0.05). […] The post-titration doses by group were similar, with 81% and 88% in each cohort receiving the 15 mg and 20 mg dose strengths (p=0.21). There were no instances of per protocol down-titration in the very severe obstruction group, and treatment emergent adverse events (TEAE's) were balanced between groups (any TEAE 77 [71%] in severe versus 28 [85%] in very severe obstruction; p=0.60).

[2] = tested on: patients with symptomatic oHCM; experiment: SEQUOIA-HCM cardiovascular magnetic resonance (CMR) substudy; assay type: in vivo, human; conditions: Echo Measurements; CMR Cohort N = 57 (Aficamten N = 25); Week 24
[3] = Baseline Valsalva LVOT-G <100 mmHg
[4] = Baseline Valsalva LVOT-G <100 mmHg, N = 109
[5] = Baseline Valsalva LVOT-G ≥100mmHg
[6] = Baseline Valsalva LVOT-G ≥100mmHg, N=33
[7] = severe obstruction (baseline Valsalva LVOT-G <100 mmHg)
[8] = very severe obstruction (≥100 mmHg)

## CCc1nc(-c2ccc3c(c2)CC[C@H]3NC(=O)c2cnn(C)c2)no1 [aficamten, (R)—N-(5-(5-ethyl-1,2,4-oxadiazol-3-yl)-2,3-dihydro-1H-inden-1-yl)-1-methyl-1H-pyrazole-4-carboxamide]
[1]; [3]
  Change in KCCQ CSS, Mean (SD) Change from Baseline: 12
  LVOT-G - Rest, Mean (SD) Change from Baseline: −28 ± 25 mmHg
  LVOT-G - Valsalva, Mean (SD) Change from Baseline: −38 ± 31 mmHg
  Peak VO2, Mean (SD) Change from Baseline: 1.8 ± 3.2 mL/min/kg
  Change in KCCQ CSS, Adjusted diff: +8
  LVOT-G - Rest, Adjusted diff: −35 mmHg
  LVOT-G - Valsalva, Adjusted diff: −43 mmHg
  NT-proBNP, Adjusted diff: −79%
  Peak VO2, Adjusted diff: +1.6 mL/kg/min
  Proportional LVOT-G - Rest, Adjusted diff: −69%
  Proportional LVOT-G - Valsalva, Adjusted diff: −64%
  hs-cTpI, Adjusted diff: −45%
  NYHA FC improvement, Rate difference: +38.2%
  Proportion of patients with rest LVOT-G <30 mmHg & Valsalva LVOT-G <50 mmHg, Adjusted diff: +63.7%
[1]; [4]
  NYHA FC improvement, % of patients: (62%)
  Proportion of patients with rest LVOT-G <30 mmHg & Valsalva LVOT-G <50 mmHg: (73%)
[1]; [5]
  Change in KCCQ CSS, Mean (SD) Change from Baseline: 9
  LVOT-G - Rest, Mean (SD) Change from Baseline: −60 ± 29 mmHg
  LVOT-G - Valsalva, Mean (SD) Change from Baseline: −82 ± 38 mmHg
  Peak VO2, Mean (SD) Change from Baseline: 1.6 ± 2.8 mL/min/kg
  Change in KCCQ CSS, Adjusted diff: +4
  LVOT-G - Rest, Adjusted diff: −52 mmHg
  LVOT-G - Valsalva, Adjusted diff: −68 mmHg
  NT-proBNP, Adjusted diff: −85%
  Peak VO2, Adjusted diff: +1.8 mL/kg/min
  Proportional LVOT-G - Rest, Adjusted diff: −73%
  Proportional LVOT-G - Valsalva, Adjusted diff: −71%
  hs-cTpI, Adjusted diff: −34%
  NYHA FC improvement, Rate difference: +22.4%
  Proportion of patients with rest LVOT-G <30 mmHg & Valsalva LVOT-G <50 mmHg, Adjusted diff: +51.2%
[1]; [6]
  NYHA FC improvement, % of patients: (49%)
  Proportion of patients with rest LVOT-G <30 mmHg & Valsalva LVOT-G <50 mmHg: (52%)
[1]; [7]
  proportional reduction from baseline in Valsalva (provoked) LVOT-G: 64%
  proportional reduction from baseline in resting LVOT-G: 69%
[1]; [8]
  proportional reduction from baseline in Valsalva (provoked) LVOT-G: 71%
  proportional reduction from baseline in resting LVOT-G: 73%
[2]
  LV Mass Index: 120 ± 32 g/m2

Reference: patent US20250295639A1, “METHODS FOR TREATING HEART DISEASES” (Cytokinetics, Incorporated, priority 2024, published 2025)
